# Values joined by “and” are separate entries in the source; they are usually repeats but may differ in a detail not shown here. Identical values can stand only once. Toxic doses and inconclusive results are not listed.
# Test system: P388 leukemia ip, CD2F1 mice, survival T/C
# Assay: NCI In Vivo Anticancer Drug Screen. Data for tumor model P388 Leukemia (intraperitoneal) in CD2F1 (CDF1) mice
# Settings: endpoint: median survival time, higher = longer survival
# Outline: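 Mice carrying the transplanted tumor received test compound or vehicle. Survival was recorded in each group, and the value is the treated-group measurement divided by that of the vehicle-treated control group.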
# [1] = dose: 25.0 mg/kg/injection, schedule: Q01DX005 (ip), vehicle: Klucel (hydroxypropylcellulose) (HPC)
# [2] = dose: 50.0 mg/kg/injection, schedule: Q01DX005 (ip), vehicle: Klucel (hydroxypropylcellulose) (HPC)
# [3] = dose: 25.0 mg/kg/injection, schedule: Q04DX003 (ip), vehicle: saline
# [4] = dose: 50.0 mg/kg/injection, schedule: Q04DX003 (ip), vehicle: saline
# [5] = dose: 100.0 mg/kg/injection, schedule: Q04DX003 (ip), vehicle: saline
# [6] = dose: 60.0 mg/kg/injection, schedule: Q01DX005 (ip), vehicle: saline with Tween-80
# [7] = dose: 120.0 mg/kg/injection, schedule: Q01DX005 (ip), vehicle: saline with Tween-80
# [8] = dose: 240.0 mg/kg/injection, schedule: Q01DX005 (ip), vehicle: saline with Tween-80
# [9] = dose: 100.0 mg/kg/injection, schedule: Q01DX005 (ip), vehicle: Klucel (hydroxypropylcellulose) (HPC)
# [10] = dose: 200.0 mg/kg/injection, schedule: Q01DX005 (ip), vehicle: Klucel (hydroxypropylcellulose) (HPC)
# [11] = dose: 50.0 mg/kg/injection, schedule: Q01DX009 (ip), vehicle: Klucel (hydroxypropylcellulose) (HPC)
# [12] = dose: 100.0 mg/kg/injection, schedule: Q01DX009 (ip), vehicle: Klucel (hydroxypropylcellulose) (HPC)
# [13] = dose: 200.0 mg/kg/injection, schedule: Q01DX009 (ip), vehicle: Klucel (hydroxypropylcellulose) (HPC)
compound,measurement,setting,value
CCc1nc(N)nc(N)c1-c1ccc(NCCCN)c(N)c1,T/C,"dose: 12.5 mg/kg/injection, schedule: Q01DX005 (ip), vehicle: Klucel (hydroxypropylcellulose) (HPC)",101 % of control
same,T/C,[1],106 % of control
same,T/C,[2],110 % of control and 97 % of control
CC(=O)N1CCCC2=C1CCC2,T/C,[3],104 % of control
same,T/C,[4],100 % of control
same,T/C,[5],94 % of control and 97 % of control
COc1cc(N(CC(C)Br)CC(C)Br)ccc1N=Nc1ccccc1C(=O)O (centres undefined),T/C,"dose: 1.56 mg/kg/injection, schedule: Q01DX009 (ip), vehicle: saline with Tween-80",164 % of control
same,T/C,"dose: 3.12 mg/kg/injection, schedule: Q01DX009 (ip), vehicle: saline with Tween-80",160 % of control and 169 % of control
CCOP(O)(=S)OCC.[Gd],T/C,"dose: 100.0 mg/kg/injection, schedule: Q04DX003 (ip), vehicle: Klucel (hydroxypropylcellulose) (HPC)",90 % of control
same,T/C,"dose: 200.0 mg/kg/injection, schedule: Q04DX003 (ip), vehicle: Klucel (hydroxypropylcellulose) (HPC)",90 % of control
same,T/C,"dose: 400.0 mg/kg/injection, schedule: Q04DX003 (ip), vehicle: Klucel (hydroxypropylcellulose) (HPC)",90 % of control
COC(=O)C1=C(O)c2cc(C)c(C)c(C#N)c2NC(=O)C1,T/C,[6],95 % of control
same,T/C,[7],97 % of control
same,T/C,[8],93 % of control
N#CCNCC#N,T/C,"dose: 100.0 mg/kg/injection, schedule: Q04DX002 (ip), vehicle: saline",102 % of control
same,T/C,"dose: 200.0 mg/kg/injection, schedule: Q04DX002 (ip), vehicle: saline",103 % of control
same,T/C,"dose: 400.0 mg/kg/injection, schedule: Q04DX002 (ip), vehicle: saline",102 % of control
COc1cc(-n2c(C)nc3ncn(-c4ccccc4)c3c2=O)cc(OC)c1OC,T/C,[2],98 % of control
same,T/C,[9],102 % of control
same,T/C,[10],105 % of control
CCOC(=O)c1c(C)n(O)c2ccc(Cl)cc2c1=O,T/C,[11],100 % of control
same,T/C,[12],102 % of control
same,T/C,[13],104 % of control
CN(C)C1C(O)C2Oc3c(cc(O)c4c3C(=O)c3cc5c(c(O)c3C4=O)CCC(C)(O)C5)C(C)(O2)C1O (centres undefined),T/C,"dose: 12.5 mg/kg/injection, schedule: Q04DX003 (ip), vehicle: other",112 % of control
same,T/C,"dose: 25.0 mg/kg/injection, schedule: Q04DX003 (ip), vehicle: other",113 % of control
same,T/C,"dose: 50.0 mg/kg/injection, schedule: Q04DX003 (ip), vehicle: other",118 % of control
same,T/C,"dose: 100.0 mg/kg/injection, schedule: Q04DX003 (ip), vehicle: other",122 % of control
CC(C#N)C(N)=O (centres undefined),T/C,"dose: 12.5 mg/kg/injection, schedule: Q04DX003 (ip), vehicle: saline",100 % of control
same,T/C,[3],105 % of control
same,T/C,[4],110 % of control
CCn1c(O)c(N=O)c(=O)n(CC)c1=S,T/C,"dose: 50.0 mg/kg/injection, schedule: Q04DX002 (ip), vehicle: saline with Tween-80",105 % of control
same,T/C,"dose: 100.0 mg/kg/injection, schedule: Q04DX002 (ip), vehicle: saline with Tween-80",97 % of control
NC(=O)CCCSC1=CC(=O)c2ccccc2C1=O,T/C,"dose: 3.12 mg/kg/injection, schedule: Q04DX002 (ip), vehicle: saline with Tween-80",104 % of control
same,T/C,"dose: 6.25 mg/kg/injection, schedule: Q04DX002 (ip), vehicle: saline with Tween-80",101 % of control
same,T/C,"dose: 12.5 mg/kg/injection, schedule: Q04DX002 (ip), vehicle: saline with Tween-80",111 % of control and 114 % of control
O=C1CCC2=C1C(c1ccccc1)C1=C(CCC1=O)O2,T/C,"dose: 100.0 mg/kg/injection, schedule: Q04DX002 (ip), vehicle: Klucel (hydroxypropylcellulose) (HPC)",100 % of control
same,T/C,"dose: 200.0 mg/kg/injection, schedule: Q04DX002 (ip), vehicle: Klucel (hydroxypropylcellulose) (HPC)",100 % of control
same,T/C,"dose: 400.0 mg/kg/injection, schedule: Q04DX002 (ip), vehicle: Klucel (hydroxypropylcellulose) (HPC)",111 % of control
CN1CCc2cccc3c2[C@H]1Cc1ccc(O)c(O)c1-3,T/C,[2],95 % of control
same,T/C,[9],92 % of control
CN1/C(=C2\C=CC=C\C2=N/S(=O)(=O)c2ccccc2)Sc2ccccc21,T/C,[5],104 % of control
same,T/C,"dose: 200.0 mg/kg/injection, schedule: Q04DX003 (ip), vehicle: saline",99 % of control
same,T/C,"dose: 400.0 mg/kg/injection, schedule: Q04DX003 (ip), vehicle: saline",94 % of control
COc1ccc2c(c1OC)C(=O)O[C@@H]2[C@H]1c2cc3c(cc2CCN1C)OCO3,T/C,"dose: 10.0 mg/kg/injection, schedule: Q01DX009 (ip), vehicle: saline",108 % of control
same,T/C,"dose: 20.0 mg/kg/injection, schedule: Q01DX009 (ip), vehicle: saline",114 % of control
same,T/C,"dose: 40.0 mg/kg/injection, schedule: Q01DX009 (ip), vehicle: saline",108 % of control
same,T/C,"dose: 80.0 mg/kg/injection, schedule: Q01DX009 (ip), vehicle: saline",99 % of control
CCOC(=O)c1ccccc1-n1nnc(C#N)c1N,T/C,[2],105 % of control
same,T/C,[9],115 % of control
NNC(=O)C(NC=O)C(N)=O (centres undefined),T/C,"dose: 12.5 mg/kg/injection, schedule: Q01DX009 (ip), vehicle: saline with Tween-80",107 % of control
same,T/C,"dose: 25.0 mg/kg/injection, schedule: Q01DX009 (ip), vehicle: saline with Tween-80",100 % of control
same,T/C,"dose: 50.0 mg/kg/injection, schedule: Q01DX009 (ip), vehicle: saline with Tween-80",98 % of control
same,T/C,"dose: 50.0 mg/kg/injection, schedule: Q01DX009 (ip), vehicle: saline",88 % of control
same,T/C,"dose: 200.0 mg/kg/injection, schedule: Q01DX009 (ip), vehicle: saline",92 % of control
S=P(N1CC1)(N1CC1)N1CC1.[Cl-].[Cl-].[NH2-].[NH2-].[Pt+4],T/C,"dose: 0.78 mg/kg/injection, schedule: Q01DX009 (ip), vehicle: saline",104 % of control
same,T/C,"dose: 1.56 mg/kg/injection, schedule: Q01DX009 (ip), vehicle: saline",113 % of control and 101 % of control
same,T/C,"dose: 6.25 mg/kg/injection, schedule: Q01DX009 (ip), vehicle: saline",178 % of control and 150 % of control and 166 % of control
same,T/C,"dose: 25.0 mg/kg/injection, schedule: Q01DX009 (ip), vehicle: saline",88 % of control
CNC(=O)OCc1c(COC(=O)NC)c(-c2ccc(Cl)c(Cl)c2)n2c1CCC2,T/C,"dose: 12.5 mg/kg/injection, schedule: Q01DX009 (ip), vehicle: Klucel (hydroxypropylcellulose) (HPC)",153 % of control
same,T/C,"dose: 25.0 mg/kg/injection, schedule: Q01DX009 (ip), vehicle: Klucel (hydroxypropylcellulose) (HPC)",160 % of control
same,T/C,[11],155 % of control
same,T/C,[12],188 % of control
CCCCCCCCC1CCC(=O)NC1=O (centres undefined),T/C,[6],112 % of control
same,T/C,[7],104 % of control
same,T/C,[8],93 % of control
O=c1cc(CO)[nH]cc1O,T/C,[11],99 % of control
same,T/C,[12],123 % of control
same,T/C,"dose: 120.0 mg/kg/injection, schedule: Q01DX009 (ip), vehicle: saline with Tween-80",87 % of control
same,T/C,[13],122 % of control
same,T/C,"dose: 400.0 mg/kg/injection, schedule: Q01DX009 (ip), vehicle: saline with Tween-80",112 % of control
CC(=O)C1C(=O)C(=O)N(c2ccc(C)c(C)c2)C1=O (centres undefined),T/C,"dose: 50.0 mg/kg/injection, schedule: Q01DX005 (ip), vehicle: saline with Tween-80",101 % of control
same,T/C,"dose: 100.0 mg/kg/injection, schedule: Q01DX005 (ip), vehicle: saline with Tween-80",97 % of control
same,T/C,"dose: 200.0 mg/kg/injection, schedule: Q01DX005 (ip), vehicle: saline with Tween-80",100 % of control
CC(=O)C1CCN(CN2CCC(C(C)=O)CC2)CC1,T/C,"dose: 25.0 mg/kg/injection, schedule: Q01DX005 (ip), vehicle: saline",101 % of control
same,T/C,"dose: 50.0 mg/kg/injection, schedule: Q01DX005 (ip), vehicle: saline",110 % of control
same,T/C,"dose: 100.0 mg/kg/injection, schedule: Q01DX005 (ip), vehicle: saline",97 % of control
C=C(CN(C)C)C(=O)c1ccc(OC)cc1,T/C,"dose: 0.93 mg/kg/injection, schedule: Q01DX005 (ip), vehicle: saline",100 % of control
same,T/C,"dose: 1.87 mg/kg/injection, schedule: Q01DX005 (ip), vehicle: saline",113 % of control
same,T/C,"dose: 3.75 mg/kg/injection, schedule: Q01DX005 (ip), vehicle: saline",99 % of control
CC(=O)OC(C)CCCCCCCCCCCCCCC1=C(C)C(=O)OC1=O (centres undefined),T/C,[1],99 % of control
same,T/C,[2],106 % of control
same,T/C,[9],108 % of control
same,T/C,[10],105 % of control
same,T/C,"dose: 400.0 mg/kg/injection, schedule: Q01DX005 (ip), vehicle: Klucel (hydroxypropylcellulose) (HPC)",101 % of control
